Data from patent publication US20090318456A1, “SUBSTITUTED PTERIDINES FOR THE TREATMENT AND PREVENTION OF VIRAL INFECTIONS” (Gilead Sciences, Inc., priority 2006, published 2009).
Read-outs that look alike come from different tables or passages of the source.

Assays:
[1] = CC50 assay (CellTiter-Glo) in Huh-7 HCV replicon cells; format: cell-based, human; details: human
Description: (§1) The anti HCV activity of specifically 2,4,6-trisubstituted pteridine derivatives was tested in a human hepatoma Huh-7 cell line harbouring a HCV replicon. The assay comprised the following steps:
(§2) Step 1: compound preparation and serial dilution involved the following alternatives, depending upon the water solubility of pteridine derivative being tested: • 1. with respect to water soluble 2,4,6-trisubstituted pteridine derivatives, 500 μL of solution in cell media (DMEM, 10% FBS, P/S, L-Glutamine) was prepared with a concentration that is twice the concentration of the starting final serial dilution concentration. 150 μL of the solution was added to the pre-specified wells in column 1 of a 96-well cell culture plate (PerkinElmer, white plate, cat. #6005181, for EC50 assay; black plate, cat. #6005182 for CC50 assay). The rest of the plate, i.e. columns 2-12, was filled with 100 μL of cell media. The plate was then placed on a Precision 2000 Workstation in order to start serial dilution. Pteridine compounds were diluted three times each step from column 1 to column 10. Column 11 was used as a blank control (no pteridine compound added). • 2. With respect to poorly water soluble pteridine derivatives, DMSO was used as a solvent, and serial dilution was performed in 50% DMSO in water, in a 384-well plate. A solution containing the relevant compound at 100-fold the concentration of the starting final serial dilution concentration was prepared in 50% DMSO in water and added to the pre-specified wells in column 1 of a polypropylene 384-well plate. This plate was then placed on a Precision 2000 Workstation in order to start serial dilution. After serial dilution, 2 μL of the solution was transferred from the 384-well plate to a 96-well cell culture plate containing 100 μL of cell media on a Biomek FX Workstation. The DMSO concentration in the final assay condition was 0.5% after cells have been added to the plate and the total volume in each well was brought to 200 μL. Step 2: to each well of the serial dilution plate prepared in step 1, 100 μL of cell media containing 6000 suspended Huh-7 HCV replicon cells was added with a Multidrop workstation. Plates were incubated for 3 days at 37° C. with 5% CO2. Step 3: detection: • 1) with respect to the EC50 assay, the media in a 96-well cell culture plate was aspirated with a Biotek EL405 plate-washer. A volume of 200 μL of a solution containing a 1:1 mixture of a cell-lysis buffer (commercially available from Promega, Luciferase Cell Culture Lysis 5× Reagent, cat. #E1531) and a luciferase substrate solution (commercially available from Promega, Luciferase Assay, cat. # E4550) was added to each well of the plate with Multidrop. The plate was incubated for 30 minutes at room temperature before the luminescence signal was measured with a TopCount plate-reader. • 2) with respect to the CC50 assay, 100 μL of a pre-mixed CellTiter-Glo (commercially available from Promega, cat. # G7572) solution was added directly to the cell culture in each well of the plate and the luminescence signal was measured with a TopCount plate-reader after 10 minutes of incubation at room temperature.
(§3) Results are expressed by the following data: • the 50% effective concentration (EC50), i.e. the concentration that protects 50% of the cell monolayer from virus-induced cythopathic effect, and • the 50% cytostatic concentration (CC50), i.e. the concentration that results in 50% inhibition of cell growth.

HCV replicon = test: Anti-HCV replicon assay (EC50, luciferase); format: cell-based, Hepatitis C virus (HCV)
Description: as §1, §2, §3

Huh-7 HCV replicon cells = test: CC50 assay (CellTiter-Glo) in Huh-7 HCV replicon cells; format: cell-based, human
Description: as §1, §2, §3

[2] = Hepatitis C virus, 72 h, Table 4, Huh-7 HCV replicon cells, 3 days, luciferase, read-out: EC50
[3] = Table 1, Huh-7 HCV replicon cells, 3 days, luciferase, read-out: EC50
[4] = Table 3, Huh-7 HCV replicon cells, 3 days, luciferase, read-out: EC50

| SMILES | CC50 (Huh-7 HCV replicon cells; Table 1, 3 days) | EC50 (HCV replicon; [3]) | other results |
| --- | --- | --- | --- |
| NS(=O)(=O)c1ccc(CNc2nc(NCC(F)(F)F)c3nc(-c4ccc(C(=O)NC5CC5)cc4)cnc3n2)cc1 [Example H, N-Cyclopropyl-4-[2-(4-sulfamoyl-benzylamino)-4-(2,2,2-trifluoro-ethylamino)-pteridin-6-yl]-benzamide] | – | – | CC50 at 3 days ([1]; Table 4): > 20 µM; EC50 (HCV replicon; Hepatitis C virus, Huh-7, 72 h): 0.3 to 1 µM |
| NS(=O)(=O)c1ccc(CNc2nc(NCC(F)(F)F)c3nc(-c4ccc(F)c(Cl)c4)cnc3n2)cc1 [Example I, 4-{[6-(3-Chloro-4-fluoro-phenyl)-4-(2,2,2-trifluoro-ethylamino)-pteridin-2-ylamino]-methyl}-benzenesulfonamide] | – | – | CC50 at 3 days ([1]; Table 4): 10 to 20 µM; EC50 (HCV replicon; Hepatitis C virus, Huh-7, 72 h): 0.3 to 1 µM |
| CC(C)Oc1nc(N)nc2ncc(-c3ccc(F)cc3)nc12 [2-amino-4-isopropoxy-6-(4-fluorophenyl)-pteridine] | – | – | CC50 at 3 days ([1]; Table 6): > 20 µM; EC50 (HCV replicon; Hepatitis C virus, 72 h, Table 6, Huh-7 HCV replicon cells, 3 days, luciferase, read-out: EC50): < 0.3 µM |
| CC(Nc1nc(NCC(F)(F)F)c2nc(-c3ccc(F)cc3)cnc2n1)c1ccc(S(N)(=O)=O)cc1 (centres unmarked) [Example F, 4-{1-[6-(4-Fluoro-phenyl)-4-(2,2,2-trifluoro-ethylamino)-pteridin-2-ylamino]-ethyl}-benzenesulfonamide] | – | – | CC50 at 3 days ([1]; Table 4): < 10 µM; EC50 (HCV replicon; [2]): < 0.3 µM |
| COc1ccc(-c2cnc3nc(N)nc(N4CCN(Cc5ccccn5)CC4)c3n2)cc1OC [Example 99] | 10 to 20 µM | 0.3 to 1 µM | – |
| COc1ccc(-c2cnc3nc(N)nc(N4CCN(CC(=O)N(C)c5ccccc5)CC4)c3n2)cc1OC [Example 85] | < 10 µM | < 0.3 µM | – |
| COc1ccc(-c2cnc3nc(N)nc(N4CCN(CC(=O)N5CCOCC5)CC4)c3n2)cc1OC [Example 83] | > 20 µM | 0.3 to 1 µM | – |
| COc1ccc(-c2cnc3nc(N)nc(N4CCN(C(=O)N5CCCC5)CC4)c3n2)cc1OC [Example 29] | 10 to 20 µM | < 0.3 µM | – |
| Fc1ccc(CNc2nc(NCC(F)(F)F)c3nc(-c4ccc(F)cc4)cnc3n2)cc1 [Example E, N2-(4-Fluoro-benzyl)-6-(4-fluoro-phenyl)-N4-(2,2,2-trifluoro-ethyl)-pteridine-2,4-diamine] | – | – | CC50 at 3 days ([1]; Table 4): < 10 µM; EC50 (HCV replicon; [2]): < 0.3 µM |
| CCOc1nc(N)nc2ncc(-c3ccc(F)cc3)nc12 [Example 131, 2-amino-4-ethoxy-6-(4-fluorophenyl)-pteridine] | – | – | CC50 at 3 days ([1]; Table 2): > 20 µM; EC50 (HCV replicon; Hepatitis C virus, 72 h, Table 2, Huh-7 HCV replicon cells, 3 days, luciferase, read-out: EC50): < 0.3 µM |
| CCCCNC(=O)N1CCN(c2nc(N)nc3ncc(-c4ccc(OC)c(OC)c4)nc23)CC1 [Example 118] | < 10 µM | < 0.3 µM | – |
| COc1ccc(-c2cnc3nc(N)nc(N4CCN(C(=O)/C=C/c5ccccc5)CC4)c3n2)cc1OC [Example 28] | < 10 µM | < 0.3 µM | – |
| COCCN1CCN(c2nc(N)nc3ncc(-c4ccc(OC)c(OC)c4)nc23)CC1 [Example 55] | > 20 µM | 0.3 to 1 µM | – |
| CCOCCN1CCN(c2nc(N)nc3ncc(-c4ccc(OC)c(OC)c4)nc23)CC1 [Example 104] | > 20 µM | < 0.3 µM | – |
| COc1ccc(-c2cnc3nc(N)nc(N4CCN(C(=O)NCCc5cccs5)CC4)c3n2)cc1OC [Example 115] | < 10 µM | < 0.3 µM | – |
| COc1ccc(N2CCN(c3nc(N)nc4ncc(-c5ccc(OC)c(OC)c5)nc34)CC2)cc1 [Example 95] | > 20 µM | 0.3 to 1 µM | – |
| CCOc1nc(NCc2ccc(F)cc2)nc2ncc(-c3ccc(F)cc3)nc12 [Example C] | – | – | CC50 at 3 days ([1]; Table 4): > 20 µM; EC50 (HCV replicon; Hepatitis C virus, Huh-7, 72 h): < 0.3 µM |
| COc1ccc(-c2cnc3nc(N)nc(N4CCN(C(=O)Cc5cccs5)CC4)c3n2)cc1OC [Example 27] | < 10 µM | < 0.3 µM | – |
| COc1ccc(-c2cnc3nc(N)nc(N4CCN(CCC#N)CC4)c3n2)cc1OC [Example 100] | 10 to 20 µM | < 0.3 µM | – |
| COc1ccc(-c2cnc3nc(N)nc(N4CCN(C(=O)OCc5ccccc5)CC4)c3n2)cc1OC [Example 43] | < 10 µM | < 0.3 µM | – |
| CCC(C)Nc1nc(N)nc2ncc(-c3ccc(OC)c(OC)c3)nc12 (centres unmarked) [Example 230] | – | – | CC50 (Huh-7 HCV replicon cells; Table 3, 3 days): > 20 µM; EC50 (HCV replicon; [4]): 0.3 to 1 µM |
| COc1ccc(-c2cnc3nc(N)nc(N4CCN(C(=O)Nc5ccc(F)c(Cl)c5)CC4)c3n2)cc1OC [Example 113] | < 10 µM | < 0.3 µM | – |

| SMILES | CC50 (Huh-7 HCV replicon cells; Table 1, 3 days) | EC50 (HCV replicon; [3]) | other results |
| --- | --- | --- | --- |
| COc1ccc(-c2cnc3nc(N)nc(N4CCN(CC(=O)N5CCCC5)CC4)c3n2)cc1OC [Example 84] | > 20 µM | < 0.3 µM | – |
| COc1ccc(-c2cnc3nc(N)nc(N4CCN(Cc5cccc(C)c5)CC4)c3n2)cc1OC [Example 49] | 10 to 20 µM | < 0.3 µM | – |
| COc1ccc(-c2cnc3nc(N)nc(N4CCN(C(=O)c5ccoc5)CC4)c3n2)cc1OC [Example 38] | 10 to 20 µM | 0.3 to 1 µM | – |
| Nc1ccc(-c2cnc3nc(N)nc(N4CCOCC4)c3n2)cc1 [Example 231] | – | – | CC50 (Huh-7 HCV replicon cells; Table 3, 3 days): > 20 µM; EC50 (HCV replicon; [4]): 0.3 to 1 µM |
| COc1ccc(-c2cnc3nc(N)nc(N4CCN(Cc5cccnc5)CC4)c3n2)cc1OC [Example 80] | 10 to 20 µM | < 0.3 µM | – |
| CCC(C)Nc1nc(N)nc2ncc(-c3ccc(OC)c(OC)c3)nc12 (centres unmarked) [Example 234] | – | – | CC50 (Huh-7 HCV replicon cells; Table 3, 3 days): > 20 µM; EC50 (HCV replicon; [4]): 0.3 to 1 µM |
| CCN(CC)C(=O)N1CCN(c2nc(N)nc3ncc(-c4ccc(OC)c(OC)c4)nc23)CC1 [Example 20] | > 20 µM | < 0.3 µM | – |
| CCCCc1ccc(C(=O)N2CCN(c3nc(N)nc4ncc(-c5ccc(OC)c(OC)c5)nc34)CC2)cc1 [Example 54] | < 10 µM | < 0.3 µM | – |
| COc1ccc(-c2cnc3nc(N)nc(N4CCN(C(=O)Nc5cccc(C)c5)CC4)c3n2)cc1OC [Example 3] | < 10 µM | < 0.3 µM | – |
| CCOC(=O)CN1CCN(c2nc(N)nc3ncc(-c4ccc(OC)c(OC)c4)nc23)CC1 [Example 98] | 10 to 20 µM | < 0.3 µM | – |
| COc1ccc(-c2cnc3nc(N)nc(N4CCN(CC5CCCO5)CC4)c3n2)cc1OC (centres unmarked) [Example 108] | > 20 µM | 0.3 to 1 µM | – |
| COCC(=O)N1CCN(c2nc(N)nc3ncc(-c4ccc(OC)c(OC)c4)nc23)CC1 [Example 32] | > 20 µM | < 0.3 µM | – |
| COc1ccc(-c2cnc3nc(N)nc(N4CCN(C(=O)c5cccs5)CC4)c3n2)cc1OC [Example 19] | 10 to 20 µM | < 0.3 µM | – |
| COc1ccc(-c2cnc3nc(N)nc(N4CCN(Cc5ccncc5)CC4)c3n2)cc1OC [Example 81] | 10 to 20 µM | 0.3 to 1 µM | – |
| COc1ccc(OC(=O)N2CCN(c3nc(N)nc4ncc(-c5ccc(OC)c(OC)c5)nc34)CC2)cc1 [Example 60] | < 10 µM | < 0.3 µM | – |
| COc1ccc(-c2cnc3nc(N)nc(N4CCN(C(=O)Nc5ccc(F)cc5)CC4)c3n2)cc1OC [Example 88] | < 10 µM | < 0.3 µM | – |
| COc1ccc(-c2cnc3nc(N)nc(N4CCN(C(=O)c5ccncc5)CC4)c3n2)cc1OC [Example 22] | 10 to 20 µM | < 0.3 µM | – |
| COc1ccc(-c2cnc3nc(N)nc(N4CCN(CCc5ccccc5)CC4)c3n2)cc1OC [Example 86] | 10 to 20 µM | < 0.3 µM | – |
| COc1ccc(-c2cnc3nc(N)nc(N4CCN(C(=O)Nc5cccs5)CC4)c3n2)cc1OC [Example 114] | < 10 µM | < 0.3 µM | – |
| COc1ccc(-c2cnc3nc(N)nc(N4CCN(C(=O)Oc5ccc(Cl)cc5)CC4)c3n2)cc1OC [Example 63] | < 10 µM | < 0.3 µM | – |
| CCCCCC(=O)N1CCN(c2nc(N)nc3ncc(-c4ccc(OC)c(OC)c4)nc23)CC1 [Example 16] | 10 to 20 µM | < 0.3 µM | – |
